From patent US8465983B1, “Detection and delivery systems utilizing supported lipid bilayers” (priority 2005, dated 2013)

Experiments:
[1] = tested on: lipid membranes on porous silica beads packed in microcolumn; assay: Microfluidic study: release of dye from a bead packed microcolumn after TRITON X-100 injection; format: biochemical; details: 10 μL of 10% TRITON X-100 injected, 5 min no flow
Protocol: To create a packed microcolumn of lipid coated beads containing fluorescein, 2 μL of silica bead (diameter=20 μm) containing suspension (0.05 mg/μL) was injected into a microfluidic channel by applying vacuum at the outlet port of the microchannel, followed by the injection of 10 μL of fluorescein-entrapped bead (diameter=10 μm) containing suspension (0.05 mg/μL). The bead packed microchannel was mounted onto a vertical translational stage located in the sample holder space of the fluorimeter. Just below the bead segment, the microchannel was irradiated with an Argon ion laser (λ=488 nm, 8-10 mW) excitation. The inlet of the column was connected to a buffer reservoir while the outlet was connected to a vacuum source. As the fluorescence intensity at 520 nm was monitored, several microliters of Tris buffer was passed through the microchannel before the injection of TRITON X-100 detergent. […]
The packed segment was about 2 mm long. The disruption of the membranes on porous silica beads (containing fluorescein dye) by TRITON X-100 detergent was detected by monitoring the release of the dye from the beads, at a point just below the bead segment as indicated in FIG. 7B. […] The microcolumn was irradiated at 488 nm and fluorescence intensity was monitored at 520 nm. […]

[2] = tested on: EPC lipid bilayer on porous silica beads; assay: Suspension study: disruption of EPC bilayers on fluorescein-containing porous silica beads, release of dye into supernatant; format: biochemical
Protocol: Lipid coatings on beads were disrupted using 10% TRITON X-100 detergent. Each sample in micro-centrifuge tubes contained 5 mg of lipid bilayer coated, fluorescein entrapped beads in 200 μL of Tris buffer. Samples were centrifuged and 100 μL aliquots of supernatant were mixed with either 100 μL of Tris buffer or 100 μL of 10% TRITON X-100 detergent in separate centrifuge tubes. The fluorescence intensity of each mixture was immediately (time=0) recorded. Each mixture was mixed with its respective bead sample in centrifuge tube and incubated at 25° C. in the dark. After 30 min, samples were centrifuged and fluorescent intensity of the supernatants was measured. Beads were resuspended in their respective supernatants. Fluorescence intensity was again measured at 90 and 150 min.
Experimental procedures were similar to the TRITON X-100 detergent based analysis. For experiments with α-toxin, three different toxin concentrations: 15, 45 and 250 μg/mL were used at 37° C. and 25° C. Beads coated with EPC were used. In the experiments with melittin, 220 μM melittin was used with beads coated with either 100% EPC, 10:90 (molar ratio) mixture of DMPG and EPC or an 80:20 mixture of DMPG and DMPC. All melittin experiments were conducted at 25° C.
Previous suspension studies on disruption of lipid bilayers have been performed with small unilamellar vesicles where disruption of the lipid bilayer membranes was detected by monitoring the unquenching of a highly concentrated, encapsulated dye. In the present work disruption was monitored via release of fluorescein dye from porous beads, by measuring the increase in fluorescence intensity of the supernatant at 520 nm. Beads were first suspended in Tris buffer containing the disruptor. After selected time periods, beads were sedimented by centrifuging and a portion of the supernatant was taken for the measurement. The measured portion was added back to the bead sample to permit continuous monitoring. The scattering effect that was present in vesicle based studies was minimized by measuring only the supernatant after centrifugation of the beads.

## TRITON X-100
[1]
  initial signal (1st peak) less than that observed in suspension studies: ~80%
[2]; 10% TRITON X-100, first 30 min, 25° C.
  increase in fluorescence intensity of the supernatant: more than 70 fold
[2]; TRITON X-100 added after 150 min exposure to α-toxin
  increase in fluorescence intensity (total disruption of bilayers): 50 fold
